Consider 37 compounds from patent publication US20260008783A1, “MODULATORS OF FSHR AND USES THEREOF” (Celmatix Inc., priority 2022, published 2026).

Values joined by “and” are separate entries in the source; they are usually repeats but may differ in a detail not shown here. Equal values may be shown once.

The IC50 is the concentration that gives 50% inhibition.

This experiment has as its target T1, Follicle Stimulating Hormone Receptor (FSHR) (Homo sapiens, UniProt P23945).
T1 construct: HA (N); expressed in transfected cells; host or cells: CHO-K1, transient transfection, pHM6 vector (CMV promoter)
T1 sequence (P23945 18-695): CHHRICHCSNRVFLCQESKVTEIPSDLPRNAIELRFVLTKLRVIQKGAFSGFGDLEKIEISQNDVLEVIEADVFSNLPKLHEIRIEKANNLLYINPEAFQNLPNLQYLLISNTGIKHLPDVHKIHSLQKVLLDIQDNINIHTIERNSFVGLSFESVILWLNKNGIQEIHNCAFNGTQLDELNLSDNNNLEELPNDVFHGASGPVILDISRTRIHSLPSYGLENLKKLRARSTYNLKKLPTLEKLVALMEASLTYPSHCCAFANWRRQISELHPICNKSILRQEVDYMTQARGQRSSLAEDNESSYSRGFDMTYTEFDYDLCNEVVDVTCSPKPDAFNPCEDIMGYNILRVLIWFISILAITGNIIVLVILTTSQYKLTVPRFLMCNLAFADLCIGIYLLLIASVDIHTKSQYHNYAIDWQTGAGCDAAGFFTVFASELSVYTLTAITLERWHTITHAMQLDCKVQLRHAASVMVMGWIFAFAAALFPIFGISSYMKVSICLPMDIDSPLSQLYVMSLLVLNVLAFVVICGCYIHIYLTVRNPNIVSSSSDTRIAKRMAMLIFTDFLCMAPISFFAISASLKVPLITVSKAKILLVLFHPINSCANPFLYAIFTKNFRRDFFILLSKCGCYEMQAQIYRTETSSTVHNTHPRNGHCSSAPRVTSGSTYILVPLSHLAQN
The experiment is described as follows: HTRF cAMP agonist assay, FSHR, transiently transfected CHO-K1 cells. In kind it is cell-based. The note with it: CHO-K1 cells transiently expressing human FSHR, read-out: IC50 FSHR LANCE CAMP. (In general: In TR-FRET formats the signal depends on donor and acceptor labels being close together.)
For `COc1cc2oc3c(C(=O)N(C)C(C)(C)C)n(-c4ccsc4)nc3c2cc1-c1cncc(C(N)=O)c1` [Compound 4-04A], the IC50 came to 1360 nM.

Regarding `COc1cc2c(cc1-c1ccn(C)n1)-c1c(c(C(=O)N(C)C(C)(C)C)nn1-c1cc(Cl)cc(Cl)c1)OC2` [Compound 2-06], the IC50 was determined as 195 nM.

Take `COc1cc2c(cc1-c1cncc(C(N)=O)c1)-c1c(c(C(=O)N3COCC3(C)C)nn1-c1cc(Cl)cc(Cl)c1)SC2` [Compound 12-15]: the IC50 was 3.09 nM.

For the compound `COc1cc2c(cc1-c1cncc(C(N)=O)c1)-c1c(c(C(=O)N3COCC3(C)C)nn1-c1cc(Cl)cc(Cl)c1)CCO2` [Compound 12-11], the IC50 was found to be 26.6 nM.

Consider `COc1cc2c(cc1-c1cncc(C(N)=O)c1)-c1c(c(C(=O)N3CCNC(=O)C3(C)C)nn1CC(C)C)CC2` [Compound 13-09, 5-[3-(2,2-dimethyl-3-oxo-piperazine-1-carbonyl)-1-isobutyl-7-methoxy-4,5-dihydrobenzo[g]indazol-8-yl]pyridine-3-carboxamide], for which the IC50 worked out at 2130 nM.

In the case of `C[C@H]1CNC(=O)[C@H](C)N1C(=O)c1nn(-c2ccccn2)c2c1CCc1ccc(-c3cccnc3)cc1-2` [Compound 8-79], the 50% inhibitory concentration (IC50) was found to be 6090 nM.

Turning to `COc1cc2c(cc1-c1cncc(C(N)=O)c1)-c1c(c(C(=O)N3CC4CC(C3)N4)nn1-c1cc(Cl)cc(Cl)c1)CC2` [Compound 8-74, 5-(3-(3,6-diazabicyclo[3.1.1]heptane-3-carbonyl)-1-(3,5-dichlorophenyl)-7-methoxy-4,5-dihydro-1H-benzo[g]indazol-8-yl)nicotinamide], the IC50 was 453 nM.

With `COc1cc2c(cc1-c1cncc(C(N)=O)c1)-c1c(c(C(=O)N3COCC3(C)C)nn1-c1cc(Cl)cc(Cl)c1)S(=O)(=O)C2` [Compound 12-07], the IC50 was 21.2 nM.

Consider `COc1cc2c(cc1-c1cncc(C(N)=O)c1)-c1c(c(C(=O)NC(C)(C)CO)nn1-c1cc(Cl)cc(Cl)c1)CC2` [Compound 8-52A], for which the IC50 was determined as 39.3 nM.

For `COc1cc2c(cc1-c1cncc(C(N)=O)c1)-c1c(c(C(=O)N3CCCN(C)CC3)nn1-c1cc(Cl)cc(Cl)c1)CC2` [Compound 8-07, 5-[1-(3,5-dichlorophenyl)-7-methoxy-3-(4-methyl-1,4-diazepane-1-carbonyl)-4,5-dihydrobenzo[g]indazol-8-yl]pyridine-3-carboxamide], the half-inhibitory concentration (IC50) was determined as 115 nM.

Regarding `CCN(C(=O)c1nn(-c2cc(Cl)cc(Cl)c2)c2c1CCc1cc(OC)c(-c3cncc(C(N)=O)c3)cc1-2)C(C)(C)C` [Compound 8-41], the IC50 is 1.8 nM and 2.46 nM.

As to `COc1cc2c(cc1-c1cncc(C(N)=O)c1)-c1c(c(C(=O)N3CCNC[C@H]3C(C)C)nn1-c1cc(Cl)cc(Cl)c1)CC2` [Compound 8-25], the half-maximal inhibitory concentration (IC50) worked out at 71.8 nM.

Consider `COc1cc2c(cc1-c1cncc(C(N)=O)c1)-c1c(c(C(=O)N3CCC[C@H]3C)nn1-c1cc(Cl)cc(Cl)c1)CC2` [Compound 8-45], for which the half-inhibitory concentration (IC50) was 17.4 nM.

On to `COc1cc2c(cc1-c1cncc(C(N)=O)c1)-c1c(c(C(=O)N3CCOCC3(C)C)nn1-c1ccsc1)C2` [Compound 5-03, 5-[3-(3,3-dimethylmorpholine-4-carbonyl)-6-methoxy-1-(3-thienyl)-4H-indeno[1,2-c]pyrazol-7-yl]pyridine-3-carboxamide], for which the 50% inhibitory concentration (IC50) turned out to be 4.64 nM.

Take `COc1cc2c(cc1-c1cncc(C(N)=O)c1)-c1c(c(C(=O)N3CCCC3C)nn1-c1cc(Cl)cc(Cl)c1)CC2` (stereo not shown) [Compound 8-38]: the half-inhibitory concentration (IC50) worked out at 9.16 nM.

As to `COc1cc2c(cc1-c1cncc(C(N)=O)c1)-c1c(c(C(=O)N3CCN(C)CC3C)nn1-c1cc(Cl)cc(Cl)c1)CC2` (stereo not shown) [Compound 8-05, 5-[1-(3,5-dichlorophenyl)-3-(2,4-dimethylpiperazine-1-carbonyl)-7-methoxy-4,5-dihydrobenzo[g]indazol-8-yl]pyridine-3-carboxamide], the half-inhibitory concentration (IC50) worked out at 60.3 nM.

In the case of `COc1cc2c(cc1-c1cccnc1)-c1c(c(C(=O)N3CCNC(=O)C3(C)C)nn1-c1ccccn1)CC2` [Compound 15-02], the 50% inhibitory concentration (IC50) came to 477 nM.

Regarding `COc1cc2c(cc1-c1cncc(C(N)=O)c1)-c1c(c(C(=O)N3COCC3(C)C)nn1-c1cc(Cl)cc(Cl)c1)CC2` [Compound 8-32], the 50% inhibitory concentration (IC50) was found to be 0.825 nM.

Consider `COc1cc2c(cc1-c1cncc(C(N)=O)c1)-c1c(c(C(=O)N3CCNC[C@H]3C(F)(F)F)nn1-c1cc(Cl)cc(Cl)c1)CC2` [Compound 8-57, 5-[1-(3,5-dichlorophenyl)-7-methoxy-3-[(2S)-2-(trifluoromethyl)piperazine-1-carbonyl]-4,5-dihydrobenzo[g]indazol-8-yl]pyridine-3-carboxamide], for which the half-maximal inhibitory concentration (IC50) was 3.89 nM.

`COc1cc2c(cc1-c1cncc(C(N)=O)c1)-c1c(c(C(=O)N3CCN(C(C)C)CC3(C)C)nn1-c1cc(Cl)cc(Cl)c1)CC2` [Compound 8-61, 5-(1-(3,5-dichlorophenyl)-3-(4-isopropyl-2,2-dimethylpiperazine-1-carbonyl)-7-methoxy-4,5-dihydro-1H-benzo[g]indazol-8-yl)nicotinamide]: the 50% inhibitory concentration (IC50) worked out at 192 nM.

Turning to `COc1cc2c(cc1-c1cncc(C(N)=O)c1)-c1c(c(C(=O)N3[C@@H]4CC[C@H]3CN(C)C4)nn1-c1cc(Cl)cc(Cl)c1)CC2` [Compound 8-18], the IC50 amounted to 18 nM.

In the case of `COc1cc2c(cc1-c1cncc(C(N)=O)c1)-c1c(c(C(=O)N3CCN(C(=O)OC(C)(C)C)C[C@@H]3C(C)C)nn1-c1cc(Cl)cc(Cl)c1)CC2` (stereo in doubt) [Compound 8-25A], the IC50 was determined as 754 nM.

`COc1cc2c(cc1-c1cncc(C(N)=O)c1)-c1c(c(C(=O)N(C)C)nn1-c1cc(Cl)cc(Cl)c1)CC2` [Compound 9-05]: the IC50 was 45.2 nM.

`COc1cc2c(cc1-c1cncc(C(N)=O)c1)-c1c(c(C(=O)N3CCNC(=O)C3(C)C)nn1-c1cc(Cl)cc(Cl)c1)CC2` [Compound 8-26]: the half-inhibitory concentration (IC50) was determined as 16.3 nM.

For `COc1cc2c(cc1-c1cncc(C(N)=O)c1)-c1c(c(C(=O)N3CCOC3(C)C)nn1-c1cc(Cl)cc(Cl)c1)CC2` [Compound 8-51, 5-(1-(3,5-dichlorophenyl)-3-(2,2-dimethyloxazolidine-3-carbonyl)-7-methoxy-4,5-dihydro-1H-benzo[g]indazol-8-yl)nicotinamide], the half-inhibitory concentration (IC50) came out at 3.06 nM.

Consider `COc1cc2c(cc1Br)-c1c(c(C(=O)N3CCOCC3(C)C)nn1-c1cc(Cl)cc(Cl)c1)CC2` [Compound 6-01A, [8-bromo-1-(3,5-dichlorophenyl)-7-methoxy-4,5-dihydrobenzo[g]indazol-3-yl]-(3,3-dimethylmorpholin-4-yl)methanone], for which the IC50 was found to be 1090 nM.

`COc1cc2c(cc1-c1cncc(C(N)=O)c1)-c1c(c(C(=O)N3CCN(CCN)C(=O)C3(C)C)nn1-c1cc(Cl)cc(Cl)c1)CC2` [Compound 8-71]: the half-maximal inhibitory concentration (IC50) came out at 3730 nM.

On to `COc1cc2c(cc1-c1cncc(C(N)=O)c1)-c1c(c(C(=O)N3C4CC3CN(C(=O)OC(C)(C)C)C4)nn1-c1cc(Cl)cc(Cl)c1)CC2` [Compound 8-16A], for which the 50% inhibitory concentration (IC50) was 79.3 nM.

On to `COc1cc2c(cc1-c1cncc(C(N)=O)c1)-c1c(c(C(=O)N3CCN(CCC(=O)O)CC3(C)C)nn1-c1cc(Cl)cc(Cl)c1)CC2` [Compound 8-65], for which the 50% inhibitory concentration (IC50) turned out to be 1320 nM.

Regarding `COc1cc2c(cc1-c1cncc(C(N)=O)c1)-c1c(c(C(=O)N3CCOCC3(C)C)nn1-c1ccccc1)CC2` [Compound 9-17], the IC50 was determined as 5.64 nM.

In the case of `COc1cc2c(cc1-c1cncc(C(N)=O)c1)-c1c(c(C(=O)N3CCC(S(C)(=O)=O)CC3C)nn1-c1cc(Cl)cc(Cl)c1)CC2` (stereo not shown) [Compound 8-13, 5-[1-(3,5-dichlorophenyl)-7-methoxy-3-(2-methyl-4-methylsulfonyl-piperidine-1-carbonyl)-4,5-dihydrobenzo[g]indazol-8-yl]pyridine-3-carboxamide], the IC50 was found to be 244 nM.

On to `COc1cc2c(cc1-c1ccn(C)n1)-c1c(c(C(=O)N3CCOCC3(C)C)nn1-c1cc(Cl)cc(Cl)c1)SC2` [Compound 3-03, (1-(3,5-dichlorophenyl)-7-methoxy-8-(1-methyl-1H-pyrazol-3-yl)-1,5-dihydroisothiochromeno[4,3-c]pyrazol-3-yl)(3,3-dimethylmorpholino)methanone], for which the half-inhibitory concentration (IC50) was 325 nM.

With `COc1cc2c(cc1-c1cncc(C(N)=O)c1)-c1c(c(C(=O)N3CCOCC3(C)C)nn1C(C)C)CC2` [Compound 9-12], the half-maximal inhibitory concentration (IC50) is 701 nM.

For the compound `CCN1CCN(C(=O)c2nn(-c3cc(Cl)cc(Cl)c3)c3c2CCc2cc(OC)c(-c4cncc(C(N)=O)c4)cc2-3)C(C)(C)C1` [Compound 8-60], the concentration for half-maximal inhibition (IC50) was found to be 38.9 nM.

For `COc1cc2c(cc1-c1cncc(C(N)=O)c1)-c1c(c(C(=O)N3CC[C@H]4CN(C)C[C@H]43)nn1-c1cc(Cl)cc(Cl)c1)CC2` [Compound 8-30], the IC50 came out at 1720 nM.

On to `COc1cc2c(cc1-c1cncc(C#N)c1)-c1c(c(C(=O)N3CCOCC3(C)C)nn1-c1cc(Cl)cc(Cl)c1)CC2` [Compound 6-01B, 5-[1-(3,5-dichlorophenyl)-3-(3,3-dimethylmorpholine-4-carbonyl)-7-methoxy-4,5-dihydrobenzo[g]indazol-8-yl]pyridine-3-carbonitrile], for which the IC50 was 33.3 nM.

For `COc1cc2c(cc1-c1cncc(C(N)=O)c1)-c1c(c(C(=O)N3CCCC3)nn1-c1cc(Cl)cc(Cl)c1)CC2` [Compound 8-37], the 50% inhibitory concentration (IC50) was 48.4 nM.
